{"source": "patent US20160100586A1", "about": "“MICROBIAL AGRICULTURE” (DSM IP ASSETS B.V., priority 2013, published 2016)", "system": "Colletotrichum gloeosporioides (CBS272.51)", "assay": "Agar plug bio-assay on YME agar, fungal colony radius towards Streptomyces or natamycin plug", "type": "cell-based", "method": "Three fungal plant pathogens were tested against the selected S. natalensis strains: Fusarium oxysporum f.sp. lycopersici (CBS414.90), Colletotrichum gloeosporioides (CBS272.51) and Alternaria alternata (CBS103.33). Fusarium oxysporum f.sp. lycopersici is a soil borne fungus causing yield loss in e.g. tomato crops (Fusarium Wilt). Colletotrichum gloeosporioides causes e.g. anthracnose, a plant disease recognizable by dark brown lesions on leaves and fruits. Alternaria alternata is a worldwide occurring saprophyte that can cause phytopathogenic reactions in economically important host plants. The selected S. natalensis strains were tested against these fungal plant pathogens as described below. Frozen vials (glycerol stocks) or freeze dried tubes from the selected S. natalensis strains were transferred to 100 ml baffled Erlenmeyer flasks containing 20 ml of Yeast Malt Extract broth (YME). Freeze dried tubes were resuspended in physiological saline and stored 1 hour at room temperature before they were transferred to the medium. The Erlenmeyer flasks were incubated in an incubator shaker for 3 days at 28° C. and 180 rpm. For each strain, 200 μl of liquid media was transferred to YME agar plates (90 mm petridishes containing 20 ml of media) and dispersed with the use of a sterile spreader onto the surface of the media). Subsequently, the agar plates were incubated for 4 days at 28° C. to enhance full colony coverage of the plate surface. The selected fungi were plated directly from a glycerol stock (200 μl) to YME agar and subsequently incubated for 4 days at 28° C. The bio-assay was done as follows. Overgrown Streptomyces and fungi plates made as described above were used to produce agar plugs. The plugs were made by cutting out the agar by using a sterile cork-borer (11 mm diameter) and subsequently removing it by a pre-sterilized spatula. Freshly produced non-inoculated YME agar plates were marked with a line on the back of the petridish. This line with a fixed length of 4 cm was placed in the middle of the petridish. Subsequently, a Streptomyces inoculated agar plug was transferred to the fresh YME agar plate at the left end of the line. The above-described “plug transfer” step was repeated for the respective fungi. The respective fungi plugs were placed at the right end of the line on the same YME agar plate. Each Streptomyces strain was challenged in triplicate against each fungus. For each tested fungus, a control sample was taken (in triplicate) by using a non-inoculated agar plug that was placed on the left side of the petridish. Next, the plates were placed with the plugs on top in an incubator. Subsequently, the plates were stored at 28° C. for 7 days. After 7 days the radius of the fungal colony was measured in the direction of the opposite agar plug (Streptomyces sample). This step was repeated for the control sample. The inhibition zone (in percentage) was calculated by using the following formula: 100%*(r0−r1)/r0 wherein r0 is the radius (in mm, corrected for the plug radius) of the fungal colony from the control sample and wherein r1 is the radius (in mm, corrected for the plug radius) of the fungal colony from the Streptomyces inhibited sample. Frozen vials (glycerol stocks) from the selected S. natalensis strains were transferred to 100 ml baffled Erlenmeyer flasks containing 20 ml of Yeast Malt Extract broth (YME). The Erlenmeyer flasks were incubated in an incubator shaker for 3 days at 28° C. and 180 rpm. For each strain, 200 μl of liquid media was transferred to YME agar plates and incubated for 4 days at 28° C. to enhance full colony coverage of the plate surface. Botrytis cinerea was plated directly from glycerol stock (100 μl) to YME agar and subsequently incubated for 9 days at 28° C. All other selected fungi were plated directly from a glycerol stock (200 μl) to YME agar and subsequently incubated for 4 days at 28° C. […]"}
{"smiles": "C[C@@H]1C/C=C/C=C/C=C/C=C/[C@H](O[C@@H]2O[C@H](C)[C@@H](O)[C@H](N)[C@@H]2O)C[C@@H]2O[C@](O)(C[C@@H](O)C[C@H]3O[C@@H]3/C=C/C(=O)O1)C[C@H](O)[C@H]2C(=O)O", "note": "[Natamycin, natamycin]", "values": [{"measurement": "inhibition at 10 ppm", "setting": "Colletotrichum gloeosporioides, CBS272, 168 h, Example 7, agar plug with 10 ppm natamycin, 5% w/w methanol, 7 days at 28° C., read-out: Average inhibition zone (in %)", "value": 4, "unit": "%"}, {"measurement": "inhibition at 25 ppm", "setting": "Colletotrichum gloeosporioides, CBS272, 168 h, Example 7, agar plug with 25 ppm natamycin, 5% w/w methanol, 7 days at 28° C., read-out: Average inhibition zone (in %)", "value": 7, "unit": "%"}, {"measurement": "inhibition at 50 ppm", "setting": "Colletotrichum gloeosporioides, CBS272, 168 h, Example 7, agar plug with 50 ppm natamycin, 5% w/w methanol, 7 days at 28° C., read-out: Average inhibition zone (in %)", "value": 15, "unit": "%"}, {"measurement": "inhibition at 75 ppm", "setting": "Colletotrichum gloeosporioides, CBS272, 168 h, Example 7, agar plug with 75 ppm natamycin, 5% w/w methanol, 7 days at 28° C., read-out: Average inhibition zone (in %)", "value": 18, "unit": "%"}, {"measurement": "inhibition at 100 ppm", "setting": "Colletotrichum gloeosporioides, CBS272, 168 h, Example 7, agar plug with 100 ppm natamycin, 5% w/w methanol, 7 days at 28° C., read-out: Average inhibition zone (in %)", "value": 21, "unit": "%"}, {"measurement": "inhibition at 175 ppm", "setting": "Colletotrichum gloeosporioides, CBS272, 168 h, Example 7, agar plug with 175 ppm natamycin, 5% w/w methanol, 7 days at 28° C., read-out: Average inhibition zone (in %)", "value": 25, "unit": "%"}, {"measurement": "inhibition at 250 ppm", "setting": "Colletotrichum gloeosporioides, CBS272, 168 h, Example 7, agar plug with 250 ppm natamycin, 5% w/w methanol, 7 days at 28° C., read-out: Average inhibition zone (in %)", "value": 28, "unit": "%"}, {"measurement": "inhibition at 375 ppm", "setting": "Colletotrichum gloeosporioides, CBS272, 168 h, Example 7, agar plug with 375 ppm natamycin, 5% w/w methanol, 7 days at 28° C., read-out: Average inhibition zone (in %)", "value": 35, "unit": "%"}, {"measurement": "inhibition at 500 ppm", "setting": "Colletotrichum gloeosporioides, CBS272, 168 h, Example 7, agar plug with 500 ppm natamycin, 5% w/w methanol, 7 days at 28° C., read-out: Average inhibition zone (in %)", "value": 41, "unit": "%"}, {"measurement": "natamycin concentration in agar plug giving similar inhibition zone as the S. natalensis ATCC-27448 agar plug", "setting": "Example 7, 7 days at 28° C.", "value": "approximately 375 ppm"}, {"measurement": "Fungal radius (in mm)", "setting": "Example 7, agar plug with 10 ppm natamycin, 5% w/w methanol, 7 days at 28° C.", "value": 44.3, "unit": "mm"}, {"measurement": "Fungal radius (in mm)", "setting": "Example 7, agar plug with 25 ppm natamycin, 5% w/w methanol, 7 days at 28° C.", "value": 43.2, "unit": "mm"}, {"measurement": "Fungal radius (in mm)", "setting": "Example 7, agar plug with 50 ppm natamycin, 5% w/w methanol, 7 days at 28° C.", "value": 39.3, "unit": "mm"}, {"measurement": "Fungal radius (in mm)", "setting": "Example 7, agar plug with 75 ppm natamycin, 5% w/w methanol, 7 days at 28° C.", "value": 37.8, "unit": "mm"}, {"measurement": "Fungal radius (in mm)", "setting": "Example 7, agar plug with 100 ppm natamycin, 5% w/w methanol, 7 days at 28° C.", "value": 36.7, "unit": "mm"}, {"measurement": "Fungal radius (in mm)", "setting": "Example 7, agar plug with 175 ppm natamycin, 5% w/w methanol, 7 days at 28° C.", "value": 34.8, "unit": "mm"}, {"measurement": "Fungal radius (in mm)", "setting": "Example 7, agar plug with 250 ppm natamycin, 5% w/w methanol, 7 days at 28° C.", "value": 33.2, "unit": "mm"}, {"measurement": "Fungal radius (in mm)", "setting": "Example 7, agar plug with 375 ppm natamycin, 5% w/w methanol, 7 days at 28° C.", "value": 30.3, "unit": "mm"}, {"measurement": "Fungal radius (in mm)", "setting": "Example 7, agar plug with 500 ppm natamycin, 5% w/w methanol, 7 days at 28° C.", "value": 27.3, "unit": "mm"}]}
